From patent US12195439B1, “C1-substituted isopropylamine fused heterocyclic mescaline derivatives” (Enveric Biosciences Canada Inc., priority 2022, dated 2025)
Where two headings read alike, the source gives them in different places.

Assays:
[1] = target: T1, 5-HT7 receptor (Homo sapiens, UniProt P34969); assay: Eurofins Cerep competition binding assay at 5-HT7 receptor; conditions: 10 μM test ligand, [3H]LSD, recombinant receptor from HEK-293 cells; for inhibition at 10 µM: read-out: HT7, percent of control-specific binding
T1 construct: host or cells: HEK-293 cells (membrane preparation)
T1 sequence (P34969 whole entry): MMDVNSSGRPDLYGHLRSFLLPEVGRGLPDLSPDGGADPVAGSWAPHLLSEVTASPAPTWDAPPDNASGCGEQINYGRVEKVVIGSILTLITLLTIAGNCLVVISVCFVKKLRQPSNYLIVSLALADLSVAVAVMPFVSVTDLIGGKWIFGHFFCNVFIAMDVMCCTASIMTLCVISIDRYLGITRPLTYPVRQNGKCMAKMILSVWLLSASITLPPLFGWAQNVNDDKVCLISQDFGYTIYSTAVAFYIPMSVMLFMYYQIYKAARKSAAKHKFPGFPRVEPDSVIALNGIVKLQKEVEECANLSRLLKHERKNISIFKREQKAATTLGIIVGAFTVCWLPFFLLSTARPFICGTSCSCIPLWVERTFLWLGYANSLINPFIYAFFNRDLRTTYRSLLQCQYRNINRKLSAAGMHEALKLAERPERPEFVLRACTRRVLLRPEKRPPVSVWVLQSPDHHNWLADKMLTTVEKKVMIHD

[2] = target: T2, dopamine transporter (DAT) (Homo sapiens, UniProt Q01959); assay: Eurofins Cerep competition binding assay at dopamine transporter; conditions: for inhibition at 10 µM: read-out: DAT, percent of control-specific binding, 10 μM test ligand, [3H]BTCP, recombinant transporter from CHO cells; for DAT, percent of control-specific binding: 10 μM test ligand, [3H]BTCP, recombinant transporter from CHO cells
T2 construct: host or cells: CHO cells (membrane preparation)
T2 sequence (Q01959 whole entry): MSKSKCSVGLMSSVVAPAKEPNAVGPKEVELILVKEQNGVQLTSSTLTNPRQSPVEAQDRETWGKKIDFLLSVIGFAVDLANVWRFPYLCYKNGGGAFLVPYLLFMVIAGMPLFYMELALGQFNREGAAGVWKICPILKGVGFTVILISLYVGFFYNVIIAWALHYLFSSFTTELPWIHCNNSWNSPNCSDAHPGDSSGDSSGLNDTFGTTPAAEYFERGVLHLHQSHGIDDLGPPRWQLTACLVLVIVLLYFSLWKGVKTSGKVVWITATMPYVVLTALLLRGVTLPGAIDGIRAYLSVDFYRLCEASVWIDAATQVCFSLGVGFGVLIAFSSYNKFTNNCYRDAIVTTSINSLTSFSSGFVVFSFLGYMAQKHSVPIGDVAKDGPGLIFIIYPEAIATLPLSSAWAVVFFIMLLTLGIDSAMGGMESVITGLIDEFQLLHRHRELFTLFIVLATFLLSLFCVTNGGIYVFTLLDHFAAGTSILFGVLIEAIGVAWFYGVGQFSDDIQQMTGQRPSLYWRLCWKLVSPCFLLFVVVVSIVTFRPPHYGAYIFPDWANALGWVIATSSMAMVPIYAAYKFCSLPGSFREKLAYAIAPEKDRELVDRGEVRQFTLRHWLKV

[3] = target: T3, norepinephrine transporter (NET) (Homo sapiens, UniProt P23975); assay: Eurofins Cerep competition binding assay at norepinephrine transporter; conditions: for inhibition at 10 µM: read-out: NET, percent of control-specific binding, 10 μM test ligand, [3H]nisoxetine, recombinant transporter from CHO cells; for NET, percent of control-specific binding: 10 μM test ligand, [3H]nisoxetine, recombinant transporter from CHO cells
T3 construct: host or cells: CHO cells (membrane preparation)
T3 sequence (P23975 whole entry): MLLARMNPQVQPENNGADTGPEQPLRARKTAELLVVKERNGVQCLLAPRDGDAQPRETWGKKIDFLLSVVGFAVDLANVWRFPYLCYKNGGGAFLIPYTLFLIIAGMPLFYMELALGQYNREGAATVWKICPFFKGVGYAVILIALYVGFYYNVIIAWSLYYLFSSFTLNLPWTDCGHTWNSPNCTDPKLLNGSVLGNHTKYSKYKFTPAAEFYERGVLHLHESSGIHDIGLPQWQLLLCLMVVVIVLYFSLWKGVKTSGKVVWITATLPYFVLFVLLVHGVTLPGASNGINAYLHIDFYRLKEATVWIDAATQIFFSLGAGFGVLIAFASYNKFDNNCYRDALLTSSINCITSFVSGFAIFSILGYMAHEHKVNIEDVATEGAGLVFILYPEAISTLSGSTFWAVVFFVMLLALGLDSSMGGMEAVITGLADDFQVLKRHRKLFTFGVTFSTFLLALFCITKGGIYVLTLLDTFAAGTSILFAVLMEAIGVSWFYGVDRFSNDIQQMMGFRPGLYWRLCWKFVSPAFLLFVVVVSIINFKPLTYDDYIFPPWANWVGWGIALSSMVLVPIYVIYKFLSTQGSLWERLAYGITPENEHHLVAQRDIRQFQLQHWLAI

[4] = target: T4, 5-HT2B receptor (Homo sapiens, UniProt P41595); assay: Eurofins Cerep competition binding assay at 5-HT2B receptor; conditions: 10 μM test ligand, [3H]mesulergine, recombinant receptor from CHO cells; for inhibition at 10 µM: read-out: HT2B, percent of control-specific binding
T4 construct: host or cells: CHO cells (membrane preparation)
T4 sequence (P41595 whole entry): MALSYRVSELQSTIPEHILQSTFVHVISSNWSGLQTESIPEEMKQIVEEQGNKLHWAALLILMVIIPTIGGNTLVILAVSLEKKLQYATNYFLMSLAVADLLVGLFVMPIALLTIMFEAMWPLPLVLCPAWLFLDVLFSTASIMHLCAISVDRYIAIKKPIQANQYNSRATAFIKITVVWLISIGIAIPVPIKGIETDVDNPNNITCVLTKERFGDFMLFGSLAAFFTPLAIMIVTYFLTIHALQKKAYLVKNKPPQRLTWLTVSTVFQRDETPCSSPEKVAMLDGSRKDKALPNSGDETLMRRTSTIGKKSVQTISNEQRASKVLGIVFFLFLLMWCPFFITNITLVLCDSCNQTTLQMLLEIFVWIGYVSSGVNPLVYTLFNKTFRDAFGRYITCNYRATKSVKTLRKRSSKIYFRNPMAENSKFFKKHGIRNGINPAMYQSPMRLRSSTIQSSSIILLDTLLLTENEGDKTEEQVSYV

[5] = target: T5, 5-HT2C receptor (Homo sapiens, UniProt P28335); assay: Eurofins Cerep competition binding assay at 5-HT2C receptor; conditions: 10 μM test ligand, [125I](±)DOI, recombinant receptor from HEK-293 cells; for inhibition at 10 µM: read-out: HT2C, percent of control-specific binding
T5 construct: host or cells: HEK-293 cells (membrane preparation)
T5 sequence (P28335 33-458): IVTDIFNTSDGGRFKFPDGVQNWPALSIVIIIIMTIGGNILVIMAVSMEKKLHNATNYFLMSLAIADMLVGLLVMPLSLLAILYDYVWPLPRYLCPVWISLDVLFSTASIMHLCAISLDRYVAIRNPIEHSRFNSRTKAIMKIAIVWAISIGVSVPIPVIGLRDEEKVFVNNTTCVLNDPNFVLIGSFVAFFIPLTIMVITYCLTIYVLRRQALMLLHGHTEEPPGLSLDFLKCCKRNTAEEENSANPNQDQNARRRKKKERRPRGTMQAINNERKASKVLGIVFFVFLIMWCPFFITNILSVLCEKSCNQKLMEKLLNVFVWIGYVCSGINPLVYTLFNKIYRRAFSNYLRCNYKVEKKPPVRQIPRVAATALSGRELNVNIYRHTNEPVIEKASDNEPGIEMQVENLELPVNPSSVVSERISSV

[6] = target: T6, MT1 receptor (Homo sapiens, UniProt P48039); assay: Eurofins Cerep competition binding assay at MT1 receptor; conditions: for MT1, percent of control-specific binding: 10 μM test ligand, [125I]2-iodomelatonin, recombinant receptor from CHO cells
T6 construct: host or cells: CHO cells (membrane preparation)
T6 sequence (P48039 whole entry): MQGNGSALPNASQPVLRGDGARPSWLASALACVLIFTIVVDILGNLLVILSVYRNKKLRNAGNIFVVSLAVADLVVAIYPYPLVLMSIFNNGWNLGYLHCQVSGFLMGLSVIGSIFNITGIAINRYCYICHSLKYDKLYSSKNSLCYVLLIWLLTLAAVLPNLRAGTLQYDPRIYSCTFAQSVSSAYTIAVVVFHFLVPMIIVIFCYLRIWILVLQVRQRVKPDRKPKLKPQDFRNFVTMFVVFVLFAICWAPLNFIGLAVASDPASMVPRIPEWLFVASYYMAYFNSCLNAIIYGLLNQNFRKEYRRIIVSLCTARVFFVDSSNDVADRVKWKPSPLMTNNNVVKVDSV

[7] = target: T7, alpha2A receptor (Homo sapiens, UniProt P08913); assay: Eurofins Cerep competition binding assay at alpha2A receptor; conditions: 10 μM test ligand, [3H]RX 821002, recombinant receptor from CHO cells; for inhibition at 10 µM: read-out: α-2A, percent of control-specific binding
T7 construct: host or cells: CHO cells (membrane preparation)
T7 sequence (P08913 1-465): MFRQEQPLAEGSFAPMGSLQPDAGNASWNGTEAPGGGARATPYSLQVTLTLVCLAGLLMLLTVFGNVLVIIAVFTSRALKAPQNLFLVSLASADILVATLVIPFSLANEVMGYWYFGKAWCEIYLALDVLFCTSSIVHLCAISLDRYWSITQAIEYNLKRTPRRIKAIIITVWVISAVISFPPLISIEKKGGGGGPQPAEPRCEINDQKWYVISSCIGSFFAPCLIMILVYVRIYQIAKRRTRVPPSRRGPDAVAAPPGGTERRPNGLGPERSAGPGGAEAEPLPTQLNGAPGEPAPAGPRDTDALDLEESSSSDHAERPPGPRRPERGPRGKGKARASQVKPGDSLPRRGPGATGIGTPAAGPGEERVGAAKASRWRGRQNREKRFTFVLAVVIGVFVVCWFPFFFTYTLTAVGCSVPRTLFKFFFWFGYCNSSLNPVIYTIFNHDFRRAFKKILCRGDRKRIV

[8] = target: T8, serotonin transporter (SERT) (Homo sapiens, UniProt P31645); assay: biochemical; assay type: binding; conditions: for inhibition at 10 µM: read-out: SERT, percent of control-specific binding; for SERT, percent of control-specific binding: 10 µM
T8 construct: host or cells: CHO cells (membrane preparation)
T8 sequence (P31645 whole entry): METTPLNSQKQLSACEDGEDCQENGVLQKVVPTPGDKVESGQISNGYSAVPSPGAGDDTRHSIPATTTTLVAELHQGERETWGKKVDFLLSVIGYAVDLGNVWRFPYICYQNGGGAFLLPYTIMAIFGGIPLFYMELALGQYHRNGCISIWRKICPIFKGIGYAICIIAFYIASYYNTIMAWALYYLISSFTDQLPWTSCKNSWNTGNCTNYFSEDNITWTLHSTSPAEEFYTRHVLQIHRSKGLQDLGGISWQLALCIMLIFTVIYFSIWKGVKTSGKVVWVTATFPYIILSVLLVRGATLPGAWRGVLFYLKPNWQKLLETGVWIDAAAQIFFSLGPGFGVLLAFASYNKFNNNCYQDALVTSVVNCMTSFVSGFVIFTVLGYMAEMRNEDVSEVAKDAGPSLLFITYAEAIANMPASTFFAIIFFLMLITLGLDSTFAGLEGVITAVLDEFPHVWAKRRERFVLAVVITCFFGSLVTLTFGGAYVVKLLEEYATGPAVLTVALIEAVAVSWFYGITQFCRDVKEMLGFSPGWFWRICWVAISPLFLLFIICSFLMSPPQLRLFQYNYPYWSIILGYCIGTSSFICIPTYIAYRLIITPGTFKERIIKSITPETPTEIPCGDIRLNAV

[9] = target: T9, 5-HT1A receptor (Homo sapiens, UniProt P08908); assay: Eurofins Cerep competition binding assay at 5-HT1A receptor; conditions: 10 μM test ligand, [3H]8-OH-DPAT, recombinant receptor from HEK-293 cells; for inhibition at 10 µM: read-out: HT1A, percent of control-specific binding
T9 construct: purchased Perkin Elmer 6110501400UA
T9 sequence (P08908 1-422): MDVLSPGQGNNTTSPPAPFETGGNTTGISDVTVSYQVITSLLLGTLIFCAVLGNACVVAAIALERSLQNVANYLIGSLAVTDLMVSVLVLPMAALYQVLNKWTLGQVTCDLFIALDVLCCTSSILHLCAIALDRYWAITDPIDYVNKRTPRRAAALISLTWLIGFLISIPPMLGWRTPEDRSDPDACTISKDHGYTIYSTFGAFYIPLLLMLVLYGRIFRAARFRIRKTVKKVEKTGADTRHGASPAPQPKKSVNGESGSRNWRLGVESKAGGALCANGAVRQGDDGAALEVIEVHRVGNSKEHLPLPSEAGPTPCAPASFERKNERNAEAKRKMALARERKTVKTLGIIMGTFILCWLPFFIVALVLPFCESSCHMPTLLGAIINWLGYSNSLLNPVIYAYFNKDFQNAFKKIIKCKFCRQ

[10] = target: T9, 5-HT1A receptor; assay: 5-HT1A receptor radioligand competition assay (SPA); assay type: binding; conditions: competition with 0.5 nM [3H]8-hydroxy-DPAT, membranes containing 5-HT1A
[11] = target: T9, 5-HT1A receptor; assay: 5-HT1A receptor functional cellular response (cAMP) assay; assay type: cell-based
[12] = read-out: MT1, percent of control-specific binding, 10 μM test ligand, [125I]2-iodomelatonin, recombinant receptor from CHO cells
[13] = read-out: MT1, percent of control-specific binding

Row | Structure (SMILES) | inhibition at 10 µM [1] [%] | inhibition at 10 µM [2] [%] | inhibition at 10 µM [3] [%] | inhibition at 10 µM [4] [%] | inhibition at 10 µM [5] [%] | inhibition at 10 µM [6, 12] [%] | inhibition at 10 µM [7] [%] | inhibition at 10 µM [9] [%] | also measured
1 | Cc1ccc(Sc2ccccc2N2CCNCC2)c(C)c1 [vortioxetine] | 100 | 90 | 99 | 97 | 99 | 26 | 62 |  | inhibition at 10 µM [8]: 101%
2 | CC(C(O)c1ccc2c(c1)OCO2)N(C)Cc1ccccc1 (single isomer, unassigned) [B(III) as diast. (iv)] |  |  |  |  |  |  |  |  | HT1A, percent of control-specific binding ([9]; 10 µM): 22%; HT7, percent of control-specific binding ([1]; 10 µM): 23%; Ki ([10]; 5-HT1A, Ki): 16.9 µM; DAT, percent of control-specific binding ([2]; 10 µM): 76%; NET, percent of control-specific binding ([3]; 10 µM): 25%; HT2B, percent of control-specific binding ([4]; 10 µM): 28%; HT2C, percent of control-specific binding ([5]; 10 µM): 14%; MT1, percent of control-specific binding ([6]; 10 µM): 15%; α-2A, percent of control-specific binding ([7]; 10 µM): 42%; SERT, percent of control-specific binding [8]: 44%
3 | O=c1n(CCCN2CCN(c3cccc(Cl)c3)CC2)nc2ccccn12 [Trazodone, trazodone] | 99 | 24 | -1 | 97 | 93 | 14 | 91 | 97 | 
4 | CN(C)CCc1c[nH]c2cccc(O)c12 [psilocin] |  |  |  |  |  |  |  |  | EC50 [11]: 0.957 µM
5 | C[S+](C)[O-] [DMSO, dimethylsulfoxide] |  |  |  |  |  |  |  |  | Ki ([10]; 5-HT1A, Ki): > 1000 µM
6 | COc1cc(CC(C)N)c(OC)cc1Br (stereo not drawn) [DOB] |  |  |  |  |  |  |  |  | HT1A, percent of control-specific binding [9]: 75%; HT7, percent of control-specific binding [1]: 65%; DAT, percent of control-specific binding [2]: 3%; NET, percent of control-specific binding [3]: 6%; HT2B, percent of control-specific binding [4]: 97%; MT1, percent of control-specific binding [6]: −3%; α-2A, percent of control-specific binding [7]: 66%; SERT, percent of control-specific binding [8]: 53%
7 | COc1ccc2[nH]cc(CCNC(C)=O)c2c1 [Melatonin, melatonin] | 8 | 4 | -2 | 52 | 19 |  | -7 | 46 | inhibition at 10 µM [6, 13]: 98%
8 | CN(C)CCCN1c2ccccc2CCc2ccccc21 [Imipramine, imipramine] | 93 | 23 | 99 | 94 | 98 | 29 | 57 | 34 | inhibition at 10 µM [8]: 98%
9 | N#Cc1ccc2[nH]cc(CCCCN3CCN(c4ccc5oc(C(N)=O)cc5c4)CC3)c2c1 [Vilazodone, vilazodone] | 83 | 98 | 99 | 96 | 92 | 84 | 65 | 99 | inhibition at 10 µM [8]: 100%
10 | CNCC[C@H](Oc1cccc2ccccc12)c1cccs1 [Duloxetine, duloxetine] |  |  |  | 95 | 92 | 23 | 54 | 95 | 
11 | CC(NCc1ccccc1)C(C)c1ccc2c(c1)OCO2 (stereo not drawn) [Ex(VI) as diast. (xi) and (xii)] |  |  |  |  |  |  |  |  | Ki ([10]; 5-HT1A, Ki): 65.9 µM
12 | COc1ccc2cccc(CCNC(C)=O)c2c1 [Agomelatine, agomelatine] | 20 | 1 | 1 | 93 | 92 |  | 2 | 58 | inhibition at 10 µM [6, 13]: 99%; inhibition at 10 µM [8]: 30%
13 | CC(C(F)c1ccc2c(c1)OCO2)N1CCCC1 (stereo not drawn) [D(I) as diast. (v)] |  |  |  |  |  |  |  |  | EC50 [11]: > 1000 µM
14 | CC(NC(C)(C)C)C(=O)c1cccc(Cl)c1 (stereo not drawn) [Bupropion, bupropion] | 4 | 92 |  | -2 | 1 | 83 | 2 | -1 | 
15 | CCOc1c(OC)cc(CCN)cc1OC [escaline] |  |  |  |  |  |  |  |  | HT1A, percent of control-specific binding [9]: 44%; HT7, percent of control-specific binding [1]: 16%; Ki ([10]; read-out: 5-HT1A, Ki): 12.4 µM; DAT, percent of control-specific binding [2]: 0%; NET, percent of control-specific binding [3]: 6%; HT2B, percent of control-specific binding [4]: 81%; HT2C, percent of control-specific binding [5]: 95%; MT1, percent of control-specific binding [6]: 0%; α-2A, percent of control-specific binding [7]: 45%; SERT, percent of control-specific binding [8]: 0%
16 | CC(C(O)c1ccc2c(c1)OCO2)N(C)Cc1ccccc1 (stereo not drawn) [B(III) as diast. (iv)] |  |  |  |  |  |  |  |  | Ki ([10]; 5-HT1A, Ki): 16.9 µM
17 | COc1cc(CCN)c(OC)cc1Br [2C-B] |  |  |  |  |  |  |  |  | EC50 ([11]; CHO-K1/5-HT1A/Gα15 cells stimulated with 4 μM forskolin, reduction of intracellular cAMP, read-out: 5-HT1A, EC50): 5.95 µM; HT1A, percent of control-specific binding [9]: 96%; HT7, percent of control-specific binding [1]: 88%; DAT, percent of control-specific binding [2]: 5%; NET, percent of control-specific binding [3]: 13%; HT2B, percent of control-specific binding [4]: 99%; MT1, percent of control-specific binding [6]: 86%; α-2A, percent of control-specific binding [7]: 88%; SERT, percent of control-specific binding [8]: 42%
18 | NCCc1c[nH]c2ccc(O)cc12 [serotonin] | 100 | 8 | -3 |  |  | 7 | 18 | 100 | 
